Columns and labels:
HFL-1 cells [1] = test: IL-8 production assay (S1P induced IL-8); format: cell-based; conditions: Homo sapiens, HFL1; S1P (1 μM) induced IL-8 in HFL-1 cells, starvation medium without HSA; read-out: IL8 EC50
Procedure, shortened: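 HFL-1 human fetal lung fibroblasts were starved in F12K/1% FBS, then given compound for 1 h (10-point, 1/3 dilution, 30 μM top, 0.3% DMSO final). S1P was added at 1 μM final for 16–24 h at 37 °C, and secreted IL-8 in supernatant quantified by ELISA.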

S1PR2 = molecular target: T1, S1PR2 (Homo sapiens, UniProt O95136); test: S1PR2 binding assay (competition with radioactively labeled S1P, SpA); conditions: membranes from stable cell line over expressing S1PR2, SpA beads; read-out: S1P2 EC50 (nM), S1PR2 binding EC50
T1 construct: expressed in transfected cells
T1 sequence (O95136 whole entry): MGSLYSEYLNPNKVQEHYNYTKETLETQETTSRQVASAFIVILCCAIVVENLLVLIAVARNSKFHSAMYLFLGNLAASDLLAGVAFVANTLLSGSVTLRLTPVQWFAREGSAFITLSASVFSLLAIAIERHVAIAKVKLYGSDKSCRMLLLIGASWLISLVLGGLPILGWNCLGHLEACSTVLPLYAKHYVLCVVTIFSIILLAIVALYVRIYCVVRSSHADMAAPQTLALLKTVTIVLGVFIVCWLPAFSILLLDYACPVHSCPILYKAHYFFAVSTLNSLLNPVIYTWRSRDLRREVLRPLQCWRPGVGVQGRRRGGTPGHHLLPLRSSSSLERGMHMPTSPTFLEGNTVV
Procedure, shortened: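 Competition with [3H]S1P for membranes from a stable S1PR2-overexpressing cell line, 20 μg/well, captured on PVT-WGA SPA beads, in 20 mM Tris pH 7.5, 10 mM MgCl2, 100 mM NaCl, 0.4% fatty-acid-free BSA, 1 mM Na3VO4. 2 h at room temperature, then centrifugation and scintillation counting.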

HFL-1 cells [2] = test: IL8 assay in the presence of Human Serum Albumin; conditions: HFL1, read-out: HSA IL8 EC50
[3] = molecular target: T2, human GPCR sphingosine 1-phosphate receptor 2 (Homo sapiens, UniProt O95136); test: S1PR2 antagonist Ca2+ flux assay; format: cell-based; conditions: antagonist mode, CHO-S1PR2 cells, S1P at EC80, Ca2+ fluorescence; read-out: S1P2 EC50 (nM), S1P2 antagonist EC50
T2 construct: host or cells: CHO
T2 sequence (O95136 whole entry): as above
Procedure, shortened: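 CHO cells stably expressing human S1PR2, serum-starved 1 h, Fluo8-loaded; compound-evoked Ca2+ fluorescence read 3 min (agonist mode), then after 15 min S1P at EC80 added and read 3 min (antagonist mode). Max/baseline fluorescence ratios normalised to vehicle and S1P EC100 or EC50 controls; EC50 derived.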

[4] = molecular target: T3, human GPCR sphingosine 1-phosphate receptor 5 (Homo sapiens, UniProt Q9H228); test: S1PR5 selectivity Ca2+ flux assay (antagonist readout); format: cell-based; conditions: CHO cells overexpressing human S1PR5 and Gq, agonist at EC80 (20 nM), read-out: S1P5 EC50 (nM), S1P5 antagonist EC50
T3 construct: host or cells: CHO
T3 sequence (Q9H228 whole entry): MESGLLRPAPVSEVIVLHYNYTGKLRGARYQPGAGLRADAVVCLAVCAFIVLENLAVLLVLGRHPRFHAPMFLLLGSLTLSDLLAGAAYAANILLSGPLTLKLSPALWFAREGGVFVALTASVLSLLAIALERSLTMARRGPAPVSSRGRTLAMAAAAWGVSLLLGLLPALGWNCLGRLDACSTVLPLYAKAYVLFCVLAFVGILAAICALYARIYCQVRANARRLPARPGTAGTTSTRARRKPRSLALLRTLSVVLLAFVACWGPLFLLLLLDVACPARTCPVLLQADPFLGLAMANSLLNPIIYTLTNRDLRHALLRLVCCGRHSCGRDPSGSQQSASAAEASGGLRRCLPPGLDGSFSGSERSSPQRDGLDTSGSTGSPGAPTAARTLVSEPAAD
Procedure, shortened: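 CHO cells stably coexpressing human S1PR5 and Gq were serum-starved, Fluo 8-loaded and preincubated 15 min at 37° C with compound. They were then stimulated at EC80 with an S1PR5-specific agonist, and calcium fluorescence was recorded for 3 min. Peak/baseline ratios were normalized to controls and fitted to a four-parameter IC50 equation.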

[5] = molecular target: T4, human GPCR sphingosine 1-phosphate receptor 1 (Homo sapiens, UniProt P21453); test: S1PR1 selectivity Ca2+ flux assay (antagonist readout); format: cell-based; conditions: antagonist readout, CHO cells overexpressing human S1PR1 and Gq, S1P at EC80 (6 nM); read-out: S1P1 EC50 (nM), S1P1 antagonist EC50
T4 construct: host or cells: CHO
T4 sequence (P21453 whole entry): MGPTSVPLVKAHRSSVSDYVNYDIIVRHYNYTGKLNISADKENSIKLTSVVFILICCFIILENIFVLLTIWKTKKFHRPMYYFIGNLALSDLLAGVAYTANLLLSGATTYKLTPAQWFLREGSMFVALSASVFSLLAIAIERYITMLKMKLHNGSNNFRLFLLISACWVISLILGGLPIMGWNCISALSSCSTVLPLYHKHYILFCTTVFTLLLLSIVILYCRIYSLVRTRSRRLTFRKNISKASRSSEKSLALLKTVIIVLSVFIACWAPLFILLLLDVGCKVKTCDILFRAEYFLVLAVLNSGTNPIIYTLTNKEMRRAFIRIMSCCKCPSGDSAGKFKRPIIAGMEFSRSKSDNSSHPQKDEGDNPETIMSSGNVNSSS
Procedure, shortened: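 CHO cells stably overexpressing human S1PR1, starved 1 h in 0.1% FAF BSA medium, then Fluo 8 dye-loaded. Compound added, then after 15 min at 37 °C, S1P-evoked Ca2+ flux recorded. Maximal signal/background ratio normalized to controls as % inhibition; IC50 from four-parameter logistic fit.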

| SMILES | EC50 (HFL-1 cells [1]) | EC50 (S1PR2) | EC50 (HFL-1 cells [2]) | EC50 [3] | EC50 [4] | EC50 [5] |
| --- | --- | --- | --- | --- | --- | --- |
| O=C(O)C1(n2nc(Cn3cc4cc(OCC5CC5)c(Cl)cc4n3)c3ccccc3c2=O)CC1 [Compound 95, 1-[4-[[6-chloro-5-(cyclopropylmethoxy)indazol-2-yl]methyl]-1-oxo-phthalazin-2-yl]cyclopropanecarboxylic acid] | 53.4 nM | 208 nM | 1830 nM | 19.4 nM | 19800 nM | ≥ 19800 nM |
| COc1ccc2c(Cn3cc4cc(OCC5CC5)c(Cl)cc4n3)nn(C(C)C(=O)O)c(=O)c2c1 (stereo not drawn) [Compound 97, 2-[4-[[6-chloro-5-(cyclopropylmethoxy)indazol-2-yl]methyl]-7-methoxy-1-oxo-phthalazin-2-yl]propanoic acid] | 60.5 nM | 432 nM | 5700 nM | 53.4 nM | 19800 nM | ≥ 19800 nM |
| O=C(O)Cc1nn(Cc2cn3cc(OCC4CC4)c(Cl)cc3n2)c2cc(F)ccc2c1=O [Compound 101, 2-[1-[[7-chloro-6-(cyclopropylmethoxy)imidazo[1,2-a]pyridin-2-yl]methyl]-7-fluoro-4-oxo-cinnolin-3-yl]acetic acid] | 6.74 nM | 33.2 nM | 154 nM | 3.48 nM | 19800 nM | ≥ 19800 nM |
| O=C(O)Cn1nc(Cc2nc3cc(Cl)c(OCC4CC4)c(F)c3[nH]2)c2ccccc2c1=O [Compound 116, 2-[4-[[5-chloro-6-(cyclopropylmethoxy)-7-fluoro-1H-benzimidazol-2-yl]methyl]-1-oxo-phthalazin-2-yl]acetic acid] | 77.8 nM | 183 nM | 566 nM | 25.2 nM | 19900 nM | ≥ 19800 nM |
| O=C(O)Cn1nc(Cc2nc3cc(Cl)c(OCC(F)F)cc3[nH]2)c2c(c1=O)CCCC2 [Compound 119, 2-[4-[[5-chloro-6-(2,2-difluoroethoxy)-1H-benzimidazol-2-yl]methyl]-1-oxo-5,6,7,8-tetrahydrophthalazin-2-yl]acetic acid] | 11.3 nM | 23.3 nM | 189 nM | 6.58 nM | 19800 nM | ≥ 19800 nM |
| COc1cc2[nH]c(Cc3nn(CC(=O)O)c(=O)c4c3CCCC4)nc2cc1Cl [Compound 120, 2-[4-[(5-chloro-6-methoxy-1H-benzimidazol-2-yl)methyl]-1-oxo-5,6,7,8-tetrahydrophthalazin-2-yl]acetic acid] | 96.7 nM | 392 nM | 822 nM | 57 nM | 19800 nM | ≥ 19800 nM |
| O=C(O)Cn1cc(Cc2nc3cc(Cl)c(OCC(F)F)cc3[nH]2)c2ccccc2c1=O [Compound 125, {4-[5-Chloro-6-(2,2-difluoro-ethoxy)-1H-benzoimidazol-2-ylmethyl]-1-oxo-1H-isoquinolin-2-yl}-acetic acid] | 66.1 nM | 200 nM | 1680 nM | 24.4 nM | 19800 nM | ≥ 19800 nM |
| O=C(O)Cn1nc(Cc2nc3cc(OCC(F)F)c(Cl)cc3[nH]2)c2c(F)ccc(F)c2c1=O [Compound 126, 2-[4-[[6-chloro-5-(2,2-difluoroethoxy)-1H-benzimidazol-2-yl]methyl]-5,8-difluoro-1-oxo-phthalazin-2-yl]acetic acid] | 5.97 nM | 93.5 nM | 113 nM | 19.1 nM | 19800 nM | ≥ 19800 nM |
| CCOc1cc2nc(Cc3nn(CC(=O)O)c(=O)c4ccccc34)[nH]c2cc1C(F)(F)F [Compound 127, 2-[4-[[5-ethoxy-6-(trifluoromethyl)-1H-benzimidazol-2-yl]methyl]-1-oxo-phthalazin-2-yl]acetic acid] | 13.6 nM | 479 nM | 61.7 nM | 8.27 nM | 19800 nM | 3500 nM |
| CCOc1cc2[nH]n(Cc3nn(CC(=O)O)c(=O)c4ccccc34)c(=O)c2cc1Cl [Compound 128, 2-[4-[(5-chloro-6-ethoxy-3-oxo-1H-indazol-2-yl)methyl]-1-oxo-phthalazin-2-yl]acetic acid] | 30.8 nM | 1970 nM | 701 nM | 28.3 nM | 19800 nM | ≥ 19800 nM |
| O=C(O)Cn1nc(Cn2[nH]c3cc(OCC4CC4)c(Cl)cc3c2=O)c2ccccc2c1=O [Compound 134, 2-[4-[[5-chloro-6-(cyclopropylmethoxy)-3-oxo-1H-indazol-2-yl]methyl]-1-oxo-phthalazin-2-yl]acetic acid] | 10.1 nM | 745 nM | 163 nM | 10 nM | 19800 nM | 12000 nM |
| N#Cc1cc2nn(Cc3nn(CC(=O)O)c(=O)c4ccccc34)cc2cc1OCC1CC1 [Compound 135, 2-[4-[[6-cyano-5-(cyclopropylmethoxy)indazol-2-yl]methyl]-1-oxo-phthalazin-2-yl]acetic acid] | 24.3 nM | 178 nM | 3460 nM | 37.5 nM | 19800 nM | ≥ 19800 nM |
| CC(C)(C)NC(=O)Cn1nc(Cn2cc3cc(OCC4CC4)c(Cl)cc3n2)c2ccccc2c1=O [Compound 144, N-tert-butyl-2-[4-[[6-chloro-5-(cyclopropylmethoxy)indazol-2-yl]methyl]-1-oxo-phthalazin-2-yl]acetamide] | 511 nM | 226 nM | 3400 nM | 191 nM | 19800 nM | ≥ 19800 nM |

Now those with a lower EC50 (HFL-1 cells [1]), led by results:

| EC50 (HFL-1 cells [1]) | EC50 (S1PR2) | EC50 (HFL-1 cells [2]) | EC50 [3] | EC50 [4] | EC50 [5] | SMILES |
| --- | --- | --- | --- | --- | --- | --- |
| 3.04 nM | 22.4 nM | 22.8 nM | 8.99 nM | 19800 nM | ≥ 19800 nM | CC(C(=O)O)n1nc(Cn2cc3cc(OCC4CC4)c(Cl)cc3n2)c2c(c1=O)CCCC2 (stereo not drawn) [Compound 93, 2-[4-[[6-chloro-5-(cyclopropylmethoxy)indazol-2-yl]methyl]-1-oxo-5,6,7,8-tetrahydrophthalazin-2-yl]propanoic acid] |
| 1.86 nM | 14.1 nM | 98.9 nM | 3.45 nM | 19800 nM | 830 nM | O=C(O)c1cn(Cc2nc3cc(OCC4CC4)c(C(F)(F)F)cc3[nH]2)c2ccccc2c1=O [Compound 106, (1-[[5-(cyclopropyl-methoxy)-6-(trifluoromethyl)-1H-benzimidazol-2-yl]methyl]-4-oxoquinoline-3-carboxylic acid)] |
| 0.986 nM | 52.9 nM | 7.56 nM | 3.49 nM | 19800 nM | 2150 nM | CC(C(=O)O)c1nn(Cc2nc3cc(OCC4CC4)c(C#N)cc3[nH]2)c2ccccc2c1=O (stereo not drawn) [Compound 107, 2-[1-[[6-cyano-5-(cyclopropylmethoxy)-1H-benzimidazol-2-yl]methyl]-4-oxo-cinnolin-3-yl]propanoic acid] |
| 1.54 nM | 9.21 nM | 5.89 nM | 2.94 nM | 19800 nM | 3080 nM | N#Cc1cc2[nH]c(Cn3nc(CC(=O)O)c(=O)c4ccccc43)nc2cc1OCC1CC1 [Compound 108, 2-[1-[[6-cyano-5-(cyclopropylmethoxy)-1H-benzimidazol-2-yl]methyl]-4-oxo-cinnolin-3-yl]acetic acid] |
| 0.96 nM | 33.2 nM | 8.83 nM | 8.18 nM | 13200 nM | 1540 nM | O=C(O)Cn1nc(Cc2nc3cc(Cl)c(OCC4CC4)cc3[nH]2)c2c(c1=O)CCCC2 [Compound 117, 2-[4-[[5-chloro-6-(cyclopropylmethoxy)-1H-benzimidazol-2-yl]methyl]-1-oxo-5,6,7,8-tetrahydrophthalazin-2-yl]acetic acid] |
| 2.29 nM | 342 nM | 13.3 nM | 13.6 nM | 19800 nM | 3720 nM | CC(C(=O)O)n1nc(Cc2nc3cc(OCC4CC4)c(Cl)cc3[nH]2)c2ccccc2c1=O (stereo not drawn) [Compound 122, 2-[4-(6-Chloro-5-cyclopropylmethoxy-1H-benzoimidazol-2-ylmethyl)-1-oxo-1H-phthalazin-2-yl]-propionic acid] |

Source: US20210315893A1 (Galapagos NV, priority 2017, published 2021)
